Results taken from the PolyMetriX glass transition set.
± gives the standard deviation of the reports.

glass transition temperature | SMILES
148.00 °C | *Oc1ccc(Oc2ccc(C(=O)c3cccc(C(=O)c4ccc(*)cc4)c3)cc2)cc1 (repeat unit)
288.00 °C | *c1ccc2c(c1)C(=O)N(c1ccc(Oc3ccc(-c4ccc(Oc5ccc(N6C(=O)c7ccc(C(*)(C(F)(F)F)C(F)(F)F)cc7C6=O)cc5)cc4)cc3)cc1)C2=O (repeat unit)
16.00 °C | *CCCCCCOC(=O)NCCCCNC(=O)O* (repeat unit)
415.00 °C | *Oc1ccc(S(=O)(=O)c2ccc(Oc3ccc4c(=O)n5c6cc(-c7ccc8c(c7)nc7c9ccc(*)c%10cccc(c(=O)n87)c%109)ccc6nc5c5cccc3c45)cc2)cc1 (repeat unit)
144.00 °C | *CC(C)(C)COC(=O)NC(=O)c1cc(C(=O)NC(=O)O*)cc(C(C)(C)C)c1 (repeat unit)
151.00 °C | *Oc1ccc(S(=O)(=O)c2ccc(Oc3ccc(/C=N/N=C/c4ccc(*)cc4)cc3)cc2)cc1 (repeat unit)
210.00 °C | *CCCN1C(=O)C2C3C=CC(C4C(=O)N(*)C(=O)C34)C2C1=O (repeat unit)
79.00 °C | */C=C/c1cc(OCC(CC)CCCC)c(*)cc1OC (repeat unit)
268.00 °C | *c1cccc(C(=O)Nc2ccc(Oc3ccc(Oc4ccc(NC(=O)c5cccc(N6C(=O)c7ccc(-c8cccc9c8C(=O)N(*)C9=O)cc7C6=O)c5)cc4)cc3)cc2)c1 (repeat unit)
40.00 °C | *Oc1ccc(CC(NC(=O)CCc2ccc(OC(=O)CCC(*)=O)cc2)C(=O)OCCCCCCCCCCCC)cc1 (repeat unit)
-26.00 °C | *CC(CCCCCCCCCCCCCCCC)C(CCCCCCCCCCCCCCCC)COC(=O)c1ccc(C(=O)O*)cc1 (repeat unit)
30.00 °C | *c1ccc(-c2ccc(-c3ccc([Si](*)(CCCC)CCCC)s3)s2)s1 (repeat unit)
193.00 °C | *C(=O)Nc1cccc(Oc2cccc(Oc3cccc(Oc4cccc(Oc5cccc(NC(=O)c6ccc7c(c6)C(=O)N(c6cccc(Oc8cccc(Oc9cccc(N%10C(=O)c%11ccc(*)cc%11C%10=O)c9)c8C#N)c6)C7=O)c5)c4C#N)c3)c2C#N)c1 (repeat unit)
368.00 °C | *C(=O)c1cc2c(cc1Cl)C(=O)N(c1cc(C(=O)O)cc(N3C(=O)c4cc(*)c(Cl)cc4C3=O)c1)C2=O (repeat unit)
211.8 °C | *CC(=O)c1ccc(Oc2ccc(C(=O)COc3ccc(/C=C4\CCC/C(=C\c5ccc(O*)c(OC)c5)C4=O)cc3OC)cc2)cc1 (repeat unit)
-29.6 ± 3.9 °C | *CCOC(=O)CCCCCCCCC(=O)O* (repeat unit) [Poly(ethylene sebacate)]
168.00 °C | *Nc1cc(NC(=O)Nc2ccc(Cc3ccc(NC(*)=O)cc3)cc2)cc(C(=O)Nc2ccc3c(c2)C(=O)c2ccccc2C3=O)c1 (repeat unit)
283.00 °C | *C(=O)Nc1ccc(Oc2ccc(-c3ccc(Oc4ccc(NC(=O)c5ccc6c(c5)C(=O)N(c5ccc(Oc7ccc(C(C)(C)c8ccc(Oc9ccc(N%10C(=O)c%11ccc(*)cc%11C%10=O)cc9)cc8)cc7)cc5)C6=O)cc4)cc3)cc2)cc1 (repeat unit)

glass transition temperature | SMILES
170.00 °C | *c1ccc(C(c2ccc(OCCCC)cc2)c2ccc(N(*)c3ccc(C)cc3)cc2)cc1 (repeat unit)
52.00 °C | *CCCCCCCCCCOC(=O)c1ccc(-c2ccc(C(=O)O*)cc2)cc1 (repeat unit)
8.00 °C | *CCCCCCOC(=O)OCCCCCCCCOC(=O)OCCCCCCn1c(=O)c2cc3c(=O)n(*)c(=O)c3cc2c1=O (repeat unit)
10.80 °C | *COC(=O)OCC1OC(OCC)(OCC)OC1* (repeat unit)
76.00 °C | *O[Si](*)(C)CCc1cc(C(=O)Oc2ccc(OCCCCCCCCCCCC)cc2)ccc1-c1ccc(C(=O)Oc2ccc(OCCCCCCCCCCCC)cc2)cc1 (repeat unit)
54.50 °C | */C=C/c1cc(OCCC(C)CCCC(C)C)c(*)cc1OC (repeat unit)
201.00 °C | *c1ccc(C(=O)NCCCCCCNC(=O)c2ccc(-c3nc4ccccc4nc3*)cc2)cc1 (repeat unit)
281.00 °C | *c1c(C)cc(Cc2cc(C)c(N3C(=O)c4ccc(Oc5cccc6c(Oc7ccc8c(c7)C(=O)N(*)C8=O)cccc56)cc4C3=O)c(C)c2)cc1C (repeat unit)
143.00 °C | *Oc1cccc(Oc2ccc(C(=O)c3ccc(NC(=O)CCCCCCCCC(=O)Nc4ccc(C(=O)c5ccc(*)cc5)cc4)cc3)cc2)c1 (repeat unit)
134.00 °C | *C1C2CC(CCCCCCCCC(=O)OCC)C(C2)C1* (repeat unit)
259.00 °C | *Oc1cccc2ccc(Oc3ccc(NC(=O)c4ccc(S(=O)(=O)c5ccc(C(=O)Nc6ccc(*)cc6)cc5)cc4)cc3)cc12 (repeat unit)
90.00 °C | *c1ccc(-c2ccc3c(c2)C(CCCCCCC#N)(CCCCCCC#N)c2cc(*)ccc2-3)cc1 (repeat unit)
220.00 °C | *CC(*)c1ccc(B(Oc2ccc(-c3ccc(OC)cc3)c3cccnc23)c2ccc(C(C)(C)C)cc2)cc1 (repeat unit)
100.00 °C | *CCCCCCCCCCNC(=O)c1ccc(C(=O)N*)c(Sc2ccccc2)c1 (repeat unit)
102.00 °C | *CC(C)(C)COC(=O)NC(=O)c1ccc(C(=O)NC(=O)O*)cc1 (repeat unit)
-55.00 °C | *O[Si](*)(CCCOCCOC)CCCOCCOC (repeat unit)
251.00 °C | *C(=O)c1ccc2c(c1)C(=O)N(c1cccc(C(=O)c3ccc(Oc4ccc(N5C(=O)c6ccc(*)cc6C5=O)cc4)cc3)c1)C2=O (repeat unit)

SMILES | glass transition temperature
*Oc1ccc(P(C)(=O)c2ccc(Oc3ccc(C(c4ccc(*)cc4)(C(F)(F)F)C(F)(F)F)cc3)cc2)cc1 (repeat unit) | 208.00 °C
*/C(C)=C(/*)SCC (repeat unit) | 160.00 °C
*C(=O)OCCN(CCOC(=O)c1ccc2c(c1)C(=O)N(c1cccc(N3C(=O)c4ccc(*)cc4C3=O)c1)C2=O)c1ccc(/N=N/c2ccc([N+](=O)[O-])cc2)cc1 (repeat unit) | 210.00 °C
*ON(C(F)(F)F)C(F)(Br)C(*)(F)F (repeat unit) | 3.00 °C
*CC/C=C(/*)C (repeat unit) [Polyisoprene (cis)] | -67.00 ± 7 °C
*C(=O)Nc1ccc(-c2cc(-c3ccccc3)cc(-c3ccc(NC(=O)c4ccc5c(c4)C(=O)N(c4cccc(P(=O)(c6ccccc6)c6cccc(N7C(=O)c8ccc(*)cc8C7=O)c6)c4)C5=O)cc3)n2)cc1 (repeat unit) | 258.00 °C
*C(F)(F)C(*)(F)C(F)(F)F (repeat unit) | 158.50 °C
*CC(*)C(=O)Oc1ccc([N+](=O)[O-])cc1 (repeat unit) | 73.30 °C
*Oc1ccc(C(c2ccc(Oc3ccc(C(=O)c4ccc(P(=O)(c5ccccc5)c5ccc(C(=O)c6ccc(*)cc6)cc5)cc4)cc3)cc2)(C(F)(F)F)C(F)(F)F)cc1 (repeat unit) | 207.00 °C
*O[Si](C)(C)[Si](*)(C)C (repeat unit) | -119.00 °C
